# Assay results published in US10155802B2, “Locally-active anticoagulants and anti-inflammatory agents” (priority 2011, dated 2018).
# “Also recorded” adds a separate entry of the source.
# Legend:
# pooled human plasma = assay: Prothrombin time (PT, thromboplastin) clotting assay; type: biochemical
# Method: Prothrombin (clotting) time (PT) or activated partial thromboplastin (clotting) time (APTT) assays were carried out at certain concentrations of the thrombin inhibitors of the present invention using pooled human plasma with addition of thromboplastin or activated partial thromboplastin to initiate clotting. The assays employed kits from Biopool International (Ventura, Calif., USA) or from Pacific Haemostasis (Middletown, Va., USA) using the procedures supplied by the manufacturer. Briefly, the stock solution of an inhibitor (with the concentration determined using UV-based OD determination, see Gill 1989) is diluted in a buffer of 20 mM HEPES and 150 mM NaCl at pH 7.4 (HBS) to a final volume of 50 μL, to which is added the reconstituted normal plasma (Product #CMS-176172 from Fisher Scientific) in an equal volume. This solution mixture is equilibrated at 37° C. for 2 minutes before 50 μL of the APTT-10XL solution (CMS-022927) is introduced forcibly to ensure proper mixing. This new mixture was incubated at 37° C. for another 5 minutes, which is followed by the addition of 50 μL of 0.02 M […] (Fisher Scientific CMS-022925) pre-warmed at 37° C. For the prothrombin time (PT) assay, an inhibitor is diluted in HBS to a final volume of 25 μL, to which is added the reconstituted control plasma (Fisher Scientific CMS-176172) in an equal volume. This solution mixture is equilibrated at 37° C. for 5 minutes before addition of 100 μL of the thromboplastin solution (CMS-176099) pre-warmed at 37° C. For APTT assays, inhibitory activities of the peptides are expressed as concentrations needed to achieve 50% of the maximum delay in clotting time (MCT50) as compared to the absence of thrombin inhibitors (Maraganore 1989). For PT assays, inhibitory activities are measured as the concentrations of the peptides that prolong the clotting time by 50% (IC50) of that of the normal control plasma (Maraganore 1990). PT and APTT assays were also carried out using slightly modified experimental procedures. Thus, 50 μL of a control plasma (Pacific Hemostasis) solution was added to 100 μL HBS (20 mM HEPES and 150 mM NaCl at pH 7.4) containing varied concentrations of the peptides of this invention. After incubation at 37° C. for 5 min, the mixture was added to 50 μL of the thromboplastin or activated partial thromboplastin reagent. Clotting of the plasma was monitored by change in absorbance at 420 nm using a SpectraMax™ plate reader.
# [1] = test system: FeCl3-induced venous thrombosis (vena cava); assay: FeCl3-induced venous model of thrombosis in rats (thrombus weight); type: in vivo; conditions: rat, single-bolus injection via tail vein
# Method: Male Sprague-Dawley rats (250-310 g; Charles River Laboratories, St-Constant, QC, Canada) were acclimated for at least 3 days prior to the start of the study. Animals were housed in microisolator cages and were kept on a 12-hr light/dark cycle with constant temperature and humidity. Food and water were provided ad libitum. Various anti-thrombotic agents and peptides of this invention were dissolved in saline (0.9% sodium chloride) prior to use.
# The FeCl3-induced venous model of thrombosis in rats was generated as described by Wang and Xu (Wang 2005) with some modifications (Couture 2011). Briefly, rats were anesthetized with a 2.5% isoflurane/oxygen mixture and placed on a heat source (35-37° C.). The vena cava was then exposed via a midline incision and the region between the renal and iliolumbar veins was isolated. […]
# Protein content of the thrombus was also measured according to protocol by Wang (Wang 2005). […] Contents of amino acids and small peptides were measured at OD280 with digestion buffer used as a blank.
# Statistical analysis was conducted using GraphPad™ Prism (GraphPad Software Inc., San Diego Calif., USA). Data were analyzed using one-way ANOVA with post-hoc Bonferroni correction for multiple comparisons. The relationship between thrombus weight and thrombus volume was determined by linear regression. […]
# [2] = test system: fresh blood withdrawn from rats with venous thrombosis; assay: Clotting time (aPTT) of fresh blood withdrawn from treated rats; type: in vivo; conditions: rat, 0.2 mg/kg bolus + 0.00433 mg/kg/min infusion; 20 minutes after administration versus before
# Method: FIG. 23 illustrates the clotting times (aPTT) determined for fresh blood withdrawn from rats with venous thrombosis at three time points, the first before drug administration and vessel injury, the second at 20 minutes after FeCl3 application and the third 60 minutes following injection of the respective thrombin inhibitors. Clotting times (aPTT) are shown for different rats administered with each thrombin inhibitor, ZIP4 for MH2-wZIP4, ZIP5 for MH2-wZIP5 and T218 for BRI-T218. Dosage levels for every compound were 0.2 mg/kg for the single-bolus injection and 0.00433 mg/kg/min for the maintenance infusion,
# Terminal blood samples were analyzed for aPTT within 15 to 30 minutes of collection using a Coag DX Analyzer with aPTT citrate cartridges (IDEXX Laboratories, Westbrook, Me., USA).
compound,measurement,setting,value
CC[C@H](C)[C@H](N)C(=O)N[C@@H](CCCNC(=N)N)C(=O)N[C@@H](Cc1ccccc1)C(=O)N[C@H](C(=O)N[C@@H](CC(=O)O)C(=O)NCC(=O)N[C@@H](CCC(=O)O)C(=O)N[C@@H](Cc1c[nH]c2ccccc12)C(=O)N[C@H](C(=O)N[C@@H](Cc1c[nH]c2ccccc12)C(=O)N[C@@H](CC(=O)O)C(=O)N[C@@H](CC(=O)O)C(=O)N[C@@H](C)C(=O)N[C@H](C(=O)N[C@@H](CCCCN)C(=O)N[C@H](C(=O)N[C@@H](Cc1c[nH]c2ccccc12)C(=O)N[C@H](C(=O)N[C@@H](Cc1c[nH]c2ccccc12)C(=O)N[C@H](C(=O)N[C@@H](CCC(=O)O)C(=O)NCC(=O)N[C@@H](CC(=O)O)C(=O)N[C@@H](Cc1ccccc1)C(=O)N[C@@H](CCC(=O)O)C(=O)N[C@@H](CCC(=O)O)C(=O)N[C@H](C(=O)N1CCC[C@H]1C(=O)N[C@@H](CCC(=O)O)C(=O)N[C@@H](CCC(=O)O)C(=O)N[C@@H](Cc1ccc(O)cc1)C(=O)N[C@@H](CC(C)C)C(=O)N[C@@H](CCC(N)=O)C(=O)O)[C@@H](C)CC)[C@@H](C)O)[C@@H](C)O)[C@@H](C)O)[C@@H](C)O)[C@@H](C)O)[C@@H](C)O [MH2-wZIP4],Plateau of prothrombin time dose response,pooled human plasma; 37° C.,(Plateau at >900 nM)
same,IC50,"pooled human plasma; 37° C., concentration that prolongs clotting time by 50%",1000 nM
same,anticoagulant effect in PT versus APTT assays,pooled human plasma; in words,greatly-reduced anticoagulant potency in both the PT and APTT assays
same,"reduction of thrombus weight, venous model",[1],"particularly efficacious in reducing the weight of local thrombus formation; also recorded: more effective than other anti-thrombotic agents (heparin, argatroban and bivalirudin)"
same,"clotting time (aPTT), systemic anticoagulant effect",[2],only a slight prolongation of the clotting time (aPTT)
